Measurements as given in patent US20090087845A1, “Genetic Markers Of True Low Birth Weight” (priority 2005, published 2009).
“And” between values parts separate entries of the source, which are not always exact repeats. Identical values can stand only once.

Tested on: placental gene expression
Assay: Placental gene expression (Affymetrix Rat Genome Chip 230.2) after SSRI (fluoxetine) exposure throughout gestation
Format: in vivo
Description: Gene expression data from pregnant rats under different forms of dietary restriction was gathered. […] (N=8) • Group 2 (CR50): Rats Given 50% of their Normal Daily Intake of Food. (N=5) • Group 3 (CR70): Rats Given 70% of their Normal Daily Intake of Food. […] (N=6) Placentas from the rats of each Group were harvested on Day 21 of gestation. RNA was extracted and gene expression was measured based on hybridization of RNA to Affymetrix Rat Genome Chips™ (230.2) (Affymetrix, Santa Clara, Calif.).
In order to determine whether placental gene expression profiling can be used to identify other prenatal exposures such as toxicants and drugs, a group of rats with drug exposure was monitored as described above. […] As with control, CR50, CR70, and HF groups, placentas from the mothers were sampled after 21 days of gestation and gene expression monitored utilizing an Affymetrix Rat Genome Chip.

[1] = rat placenta, day 21 of gestation, individual animals of SSRI group

CNCCC(Oc1ccc(C(F)(F)F)cc1)c1ccccc1 (stereo not shown) [fluoxetine, Fluoxetine]
expression, probeset 1391042_at (placenta, SSRI-exposed samples): 7.197 and 7.167 and 6.844 and 6.389 and 6.757 and 6.835
expression, probeset 1391078_at (placenta, SSRI-exposed samples): 9.617 and 9.614 and 9.751 and 9.434 and 10.05 and 9.264
expression, probeset 1391376_at (placenta, SSRI-exposed samples): 7.297 and 7.473 and 6.881 and 6.738 and 6.838 and 6.654
expression, probeset 1391555_at (placenta, SSRI-exposed samples): 7.012 and 7.728 and 6.644 and 6.541 and 6.178 and 6.968
expression, probeset 1391709_at (placenta, SSRI-exposed samples): 4.661 and 4.684 and 4.722 and 4.806 and 4.713 and 4.47
expression, probeset 1392028_at (placenta, SSRI-exposed samples): 6.162 and 6.747 and 6.346 and 6.242 and 6.323 and 6.159
expression, probeset 1392231_at (placenta, SSRI-exposed samples): 6.879 and 7.148 and 7.615 and 7.767 and 7.913 and 7.35
expression, probeset 1392936_at (placenta, SSRI-exposed samples): 8.882 and 8.406 and 9.262 and 8.975 and 9.393 and 8.807
expression, probeset 1392950_at (placenta, SSRI-exposed samples): 3.949 and 4.094 and 3.999 and 4.085 and 4.164 and 3.919
expression, probeset 1393104_at (placenta, SSRI-exposed samples): 5.321 and 5.704 and 5.504 and 5.333 and 5.921 and 5.58
expression, probeset 1393266_at (placenta, SSRI-exposed samples): 4.99 and 5.174 and 4.982 and 4.609 and 4.824 and 4.636
expression, probeset 1393517_at (placenta, SSRI-exposed samples): 6.631 and 6.746 and 6.287 and 6.483 and 6.515 and 6.633
expression, probeset 1393539_at (placenta, SSRI-exposed samples): 6.157 and 5.169 and 4.952 and 5.172 and 5.083 and 5.053
expression, probeset 1393580_at (placenta, SSRI-exposed samples): 5.687 and 6.03 and 5.819 and 5.753 and 6.108 and 5.967
expression, probeset 1393752_at (placenta, SSRI-exposed samples): 6.208 and 6.548 and 6.148 and 6.455 and 6.651 and 6.417
expression, probeset 1393798_at (placenta, SSRI-exposed samples): 3.547 and 3.62 and 3.802 and 3.629 and 3.836 and 3.782
expression, probeset 1393853_at (placenta, SSRI-exposed samples): 5.346 and 5.933 and 5.865 and 5.835 and 5.821 and 5.912
expression, probeset 1393939_at (placenta, SSRI-exposed samples): 4.71 and 4.865 and 4.742 and 4.586 and 4.592 and 4.507
expression, probeset 1393989_at (placenta, SSRI-exposed samples): 5.99 and 6.475 and 6.07 and 6.001 and 6.425 and 6.268
expression, probeset 1394361_a_at (placenta, SSRI-exposed samples): 4.204 and 4.507 and 4.247 and 4.097 and 4.402 and 4.275
expression, probeset 1394414_at (placenta, SSRI-exposed samples): 9.565 and 9.667 and 9.428 and 9.394 and 9.769 and 9.655
expression, probeset 1394498_at (placenta, SSRI-exposed samples): 5.626 and 5.476 and 5.778 and 5.78 and 5.589 and 5.688
expression, probeset 1394762_at (placenta, SSRI-exposed samples): 3.748 and 3.837 and 3.727 and 3.741 and 3.941 and 3.853
expression, probeset 1394790_at (placenta, SSRI-exposed samples): 6.185 and 6.363 and 6.208 and 6.069 and 6.016 and 6.008
expression, probeset 1395303_at (placenta, SSRI-exposed samples): 3.284 and 3.242 and 3.289 and 3.3 and 3.261 and 3.274
expression, probeset 1395316_at (placenta, SSRI-exposed samples): 6.786 and 6.744 and 6.399 and 5.525 and 5.977 and 6.48
expression, probeset 1395875_at (placenta, SSRI-exposed samples): 7.411 and 7.212 and 7.607 and 7.667 and 7.918 and 7.66
expression, probeset 1395951_at (placenta, SSRI-exposed samples): 4.46 and 4.582 and 4.341 and 4.395 and 4.516 and 4.568
expression, probeset 1395970_at (placenta, SSRI-exposed samples): 4.781 and 4.846 and 4.597 and 4.342 and 4.707 and 4.733
expression, probeset 1396104_at (placenta, SSRI-exposed samples): 5.464 and 5.416 and 5.468 and 5.564 and 5.567 and 5.601
expression, probeset 1396326_at (placenta, SSRI-exposed samples): 5.928 and 5.926 (2×) and 5.857 and 6.008 and 5.802
expression, probeset 1397116_at (placenta, SSRI-exposed samples): 3.723 and 3.556 and 3.711 and 3.773 and 3.705 and 3.589
expression, probeset 1397187_at (placenta, SSRI-exposed samples): 5.847 and 6.088 and 6.024 and 5.915 and 5.91 and 5.886
expression, probeset 1397500_x_at (placenta, SSRI-exposed samples): 6.721 and 7.079 and 6.818 and 6.587 and 6.983 and 6.477
expression, probeset 1397676_at (placenta, SSRI-exposed samples): 6.024 and 6.128 and 5.935 and 6.174 and 6.311 and 5.898
expression, probeset 1397738_at (placenta, SSRI-exposed samples): 4.159 and 4.154 and 4.198 and 4.197 and 4.131 and 4.271
expression, probeset 1397834_at (placenta, SSRI-exposed samples): 6.223 and 6.44 and 5.752 and 5.565 and 5.81 and 5.978
expression, probeset 1397911_at (placenta, SSRI-exposed samples): 5.777 and 6.103 and 5.669 and 5.522 and 5.664 and 5.597
expression, probeset 1397956_at (placenta, SSRI-exposed samples): 5.497 and 5.765 and 4.575 and 4.745 and 5.255 and 5.147
expression, probeset 1398025_at (placenta, SSRI-exposed samples): 6.981 and 7.045 and 6.561 and 6.889 and 6.773 and 6.868
expression, probeset 1398196_at (placenta, SSRI-exposed samples): 5.275 and 5.259 and 5.614 and 5.101 and 5.599 and 5.566
expression, probeset 1398208_s_at (placenta, SSRI-exposed samples): 6.67 and 6.822 and 6.248 and 6.32 and 5.983 and 6.359
expression, probeset 1398571_x_at (placenta, SSRI-exposed samples): 5.476 and 5.783 and 5.339 and 5.581 and 5.638 and 5.597
number of probe sets whose expression was altered by exposure (rat placenta, day 21 of gestation, approximately 10 mg/kg/day in drinking water throughout pregnancy, vs control): 281 probe sets
Log base 2 expression for G6 (probe set 1369132, solute carrier 18, member 2) [1]: 8.97 log base 2 and 9.76 log base 2 and 8.56 log base 2 and 8.71 log base 2 and 8.41 log base 2 and 9.1 log base 2
Log base 2 expression for G7 (probe set 1368474, vascular adhesion molecule 1) [1]: 5.83 log base 2 and 6.83 log base 2 and 5.81 log base 2 and 5.78 log base 2 and 6.05 log base 2
Log base 2 expression for G8 (probe set 1388116, collagen type 1 alpha) [1]: 8.34 log base 2 and 8.25 log base 2 and 7.56 log base 2 and 7.7 log base 2 and 7.57 log base 2 and 7.69 log base 2
Log base 2 expression for G9 (probe set 1368558, allograft inflammatory factor 1) [1]: 5.07 log base 2 and 5.61 log base 2 and 6.11 log base 2 and 5.3 log base 2 and 5.39 log base 2
Log base 2 expression for G10 (probe set 1387796, arachidonate 12 lipoxygenase) [1]: 7.19 log base 2 and 8.37 log base 2 and 8.23 log base 2 and 6.76 log base 2 and 8.03 log base 2
